What all share (assay type): biochemical
Assay [1] concerns the target PKA (Homo sapiens, UniProt P17612). Description: In vitro inhibitory activity assay for PKA, ADP-Glo, reported as selectivity ratio vs ROCK2. The settings on record: Ki for PKA divided by Ki of ROCK2 (Method B). Put shortly: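 PKA preincubated 30 min with compound (1% DMSO), then reacted 30 min at 25 °C with 10 μM ATP and 260 μM kemptide in Tris pH7.5/MgCl2/BSA/DTT; ADP-Glo luminescence. IC50 from constrained sigmoidal fit, converted to Ki by Cheng-Prusoff; value given as Ki(PKA)/Ki(ROCK2, Method B).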

The target in assay [2] is T1, ROCK2 (Homo sapiens, UniProt O75116). In words: In vitro Rho kinase inhibitory activity assay, ADP-Glo, Method B (ATP 200 μM). As to conditions: read-out: Method B ROCK 2 (Ki). Put shortly: (§1)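 Enzyme preincubated 30 min with compound in 40 mM Tris pH 7.5, 20 mM MgCl2, 0.1 mg/mL BSA, 50 μM DTT, 2.5 μM myelin basic protein, 1% DMSO, 25 °C; 1 h reaction at 200 μM ATP. ADP-Glo luminescence; IC50 from variable-slope sigmoidal fit (0–100% fixed), Ki via Cheng-Prusoff.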

Assay [3] concerns the target T2, ROCK1 (Homo sapiens, UniProt Q13464). The assay is described as above. As to conditions: read-out: Method B ROCK 1 (Ki). The method in brief: as §1
The target in assay [4] is T1, ROCK2. Description: In vitro Rho kinase inhibitory activity assay, ADP-Glo, Method A (ATP 10 μM). The settings on record: read-out: Method A ROCK 2 (Ki). The protocol:
(§2) In Vitro Inhibitory Activity Assay Description (Method A)
(§3) The effectiveness of compounds of the present invention to inhibit Rho kinase activity can be determined in a 10 μL assay containing 40 mM Tris pH7.5, 20 mM MgCl2 0.1 mg/mL BSA, 50 μM DTT and 2.5 μM peptide substrate (Myelin Basic Protein) using an ADP-Glo kit (Promega). Compounds were dissolved in DMSO such that the final concentration of DMSO was 1% in the assay. All reactions/incubations are performed at 25° C. Compound (2 μL) and either Rho kinase 1 or 2 (4 μL) were mixed and incubated for 30 min. Reactions were initiated by addition of ATP (4 μL) such that the final concentration of ATP in the assay was 10 μM. After a 1 hour incubation 10 μL of ADP-Glo Reagent was added and after a further 45 minute incubation 20 μL of Kinase Detection Buffer was added and the mixture incubated for a further 30 minutes. The luminescent signal was measured on a luminometer. […] Compounds were tested in dose-response format and the inhibition of kinase activity was calculated at each concentration of compound. To determine the IC50 (concentration of compound required to inhibit 50% of the enzyme activity) data were fit to a plot of % inhibition vs Log10 compound concentration using a sigmoidal fit with a variable slope and fixing the maximum to 100% and the minimum to 0%. To determine the Ki values the Cheng-Prusoff equation was utilized (Ki=IC50/(1+[S]/Km).

In assay [5] the target is T2, ROCK1. Described as above. The settings on record: read-out: Method A ROCK 1 (Ki). The protocol:
as §2, §3

T1 sequence (O75116 whole entry): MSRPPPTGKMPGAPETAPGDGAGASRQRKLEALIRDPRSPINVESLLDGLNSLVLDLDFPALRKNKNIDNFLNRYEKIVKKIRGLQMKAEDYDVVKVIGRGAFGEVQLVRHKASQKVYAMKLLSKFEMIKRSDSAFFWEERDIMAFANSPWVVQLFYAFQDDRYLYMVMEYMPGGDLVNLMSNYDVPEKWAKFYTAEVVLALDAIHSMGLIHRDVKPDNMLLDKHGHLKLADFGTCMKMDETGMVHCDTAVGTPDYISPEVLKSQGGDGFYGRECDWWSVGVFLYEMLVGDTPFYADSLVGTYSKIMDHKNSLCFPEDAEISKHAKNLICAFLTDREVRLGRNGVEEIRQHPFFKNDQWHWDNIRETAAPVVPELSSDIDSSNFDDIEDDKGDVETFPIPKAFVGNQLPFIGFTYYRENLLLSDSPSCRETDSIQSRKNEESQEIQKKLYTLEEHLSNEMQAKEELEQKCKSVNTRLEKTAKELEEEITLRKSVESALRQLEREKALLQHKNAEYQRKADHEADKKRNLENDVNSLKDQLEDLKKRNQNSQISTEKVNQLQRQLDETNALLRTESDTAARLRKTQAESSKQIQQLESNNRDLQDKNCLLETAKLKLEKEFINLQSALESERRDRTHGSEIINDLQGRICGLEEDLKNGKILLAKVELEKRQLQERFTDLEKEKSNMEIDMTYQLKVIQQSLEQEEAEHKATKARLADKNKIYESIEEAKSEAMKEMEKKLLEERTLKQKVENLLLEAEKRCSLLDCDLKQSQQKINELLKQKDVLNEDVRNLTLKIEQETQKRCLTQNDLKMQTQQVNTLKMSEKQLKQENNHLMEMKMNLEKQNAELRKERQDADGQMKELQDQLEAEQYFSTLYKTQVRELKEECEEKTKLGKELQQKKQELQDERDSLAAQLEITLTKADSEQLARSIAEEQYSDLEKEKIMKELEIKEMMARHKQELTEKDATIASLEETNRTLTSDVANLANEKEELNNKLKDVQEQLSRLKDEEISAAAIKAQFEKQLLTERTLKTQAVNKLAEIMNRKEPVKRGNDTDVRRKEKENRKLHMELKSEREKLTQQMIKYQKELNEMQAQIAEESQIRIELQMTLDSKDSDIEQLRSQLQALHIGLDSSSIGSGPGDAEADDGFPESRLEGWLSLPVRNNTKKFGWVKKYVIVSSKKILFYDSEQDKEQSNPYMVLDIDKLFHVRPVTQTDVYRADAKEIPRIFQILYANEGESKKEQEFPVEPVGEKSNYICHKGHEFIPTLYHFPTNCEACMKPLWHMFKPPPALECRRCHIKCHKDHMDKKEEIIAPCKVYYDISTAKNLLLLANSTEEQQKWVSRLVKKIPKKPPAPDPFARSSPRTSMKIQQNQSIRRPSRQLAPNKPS
T2 sequence (Q13464 whole entry): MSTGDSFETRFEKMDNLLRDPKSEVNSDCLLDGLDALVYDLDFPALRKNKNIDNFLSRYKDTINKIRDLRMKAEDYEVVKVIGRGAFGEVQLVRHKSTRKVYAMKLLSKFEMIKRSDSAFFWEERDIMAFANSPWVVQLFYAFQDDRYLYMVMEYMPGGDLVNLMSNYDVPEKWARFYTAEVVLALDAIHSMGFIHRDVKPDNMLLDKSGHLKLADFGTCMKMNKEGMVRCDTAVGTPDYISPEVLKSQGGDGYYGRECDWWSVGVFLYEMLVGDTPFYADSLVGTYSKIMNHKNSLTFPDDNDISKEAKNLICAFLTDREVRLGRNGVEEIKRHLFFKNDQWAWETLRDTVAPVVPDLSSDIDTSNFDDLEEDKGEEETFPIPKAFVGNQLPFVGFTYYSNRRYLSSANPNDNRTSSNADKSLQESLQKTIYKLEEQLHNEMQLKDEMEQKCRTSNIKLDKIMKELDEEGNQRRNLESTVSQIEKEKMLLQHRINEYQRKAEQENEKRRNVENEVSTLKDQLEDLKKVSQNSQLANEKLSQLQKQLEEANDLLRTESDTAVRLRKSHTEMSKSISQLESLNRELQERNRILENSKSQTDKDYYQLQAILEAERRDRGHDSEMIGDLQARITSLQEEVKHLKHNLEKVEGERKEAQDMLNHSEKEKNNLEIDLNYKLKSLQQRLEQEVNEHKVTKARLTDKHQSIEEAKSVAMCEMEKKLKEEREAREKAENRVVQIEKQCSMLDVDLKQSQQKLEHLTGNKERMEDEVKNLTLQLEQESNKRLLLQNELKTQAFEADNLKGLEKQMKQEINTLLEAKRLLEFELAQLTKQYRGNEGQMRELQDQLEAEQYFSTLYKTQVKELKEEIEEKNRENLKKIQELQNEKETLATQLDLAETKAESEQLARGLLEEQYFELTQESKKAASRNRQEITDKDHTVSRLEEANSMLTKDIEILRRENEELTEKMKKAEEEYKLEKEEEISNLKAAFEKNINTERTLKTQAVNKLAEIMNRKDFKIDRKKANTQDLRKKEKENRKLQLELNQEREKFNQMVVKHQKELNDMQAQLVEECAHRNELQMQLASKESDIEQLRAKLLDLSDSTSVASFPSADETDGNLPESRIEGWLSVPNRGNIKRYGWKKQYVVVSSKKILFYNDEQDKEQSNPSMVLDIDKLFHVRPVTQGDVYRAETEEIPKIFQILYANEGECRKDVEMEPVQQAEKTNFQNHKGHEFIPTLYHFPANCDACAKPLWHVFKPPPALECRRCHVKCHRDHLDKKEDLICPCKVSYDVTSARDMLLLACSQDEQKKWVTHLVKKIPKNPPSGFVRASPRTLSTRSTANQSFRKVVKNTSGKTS

Regarding `c1ccc(CNc2ncc(-c3ccncc3)c3c2CCO3)cc1` [Example A, N-Benzyl-7-(pyridin-4-yl)-2,3-dihydrofuro[3,2-c]pyridin-4-amine, reference compound], in assay [1], the “Ratio (PKA/ROCK2)” value is “* (ratio<5)”. Moreover, the Ki in assay [2], in assay [3], in assay [4] and in assay [5] was more than 30 nM in each case.
Consider `CN1CCc2sc(C(=O)Nc3cccc(CNc4ncc(-c5ccncc5)c5c4CCO5)c3)nc2C1` [Example 54, 5-methyl-N-(3-(((7-(pyridin-4-yl)-2,3-dihydrofuro[3,2-c]pyridin-4-yl)amino)methyl)phenyl)-4,5,6,7-tetrahydrothiazolo[4,5-c]pyridine-2-carboxamide], for which the “Ratio (PKA/ROCK2)” value in assay [1] is given as “*** (ratio≥10)”. Also, the Ki in assay [2], in assay [3], in assay [4] and in assay [5] was not above 3 nM each time.
Regarding `CN1CCC(CCNC(=O)c2cccc(CNc3ncc(-c4ccncc4)c4c3CCO4)c2)CC1` [Example 22, N-(2-(1-methylpiperidin-4-yl)ethyl)-3-(((7-(pyridin-4-yl)-2,3-dihydrofuro[3,2-c]pyridin-4-yl)amino)methyl)benzamide], the “Ratio (PKA/ROCK2)” value in assay [1] is reported as “*** (ratio≥10)”. Moreover, the Ki in assay [2], in assay [3], in assay [4] and in assay [5] was not above 3 nM throughout.
On to `O=C(NCCN1CCOCC1)c1cccc(CNc2ncc(-c3ccncc3)c3c2CCO3)c1` [Example 28, N-(2-morpholinoethyl)-3-(((7-(pyridin-4-yl)-2,3-dihydrofuro[3,2-c]pyridin-4-yl)amino)methyl)benzamide], for which the “Ratio (PKA/ROCK2)” value in assay [1] is listed as “*** (ratio≥10)”. Moreover, the Ki in assay [2] was 3 to 30 nM; in assay [3], 3 to 30 nM; in assay [4] it was not above 3 nM; in assay [5] it was not above 3 nM.
For the compound `O=C(Nc1cccc(CNc2ncc(-c3ccncc3)c3c2CCO3)c1)c1ccc(CN2CCOCC2)cc1` [Example 36, 4-(morpholinomethyl)-N-(3-(((7-(pyridin-4-yl)-2,3-dihydrofuro[3,2-c]pyridin-4-yl)amino)methyl)phenyl)benzamide], the “Ratio (PKA/ROCK2)” value in assay [1] is on record as “*** (ratio≥10)”. For the same compound, the inhibition constant (Ki) in assay [2], in assay [3], in assay [4] and in assay [5] was not above 3 nM each time.
For `CN1CCN(CCCC(=O)Nc2cccc(CNc3ncc(-c4ccncc4)c4c3CCO4)c2)CC1` [Example 35, 4-(4-methylpiperazin-1-yl)-N-(3-(((7-(pyridin-4-yl)-2,3-dihydrofuro[3,2-c]pyridin-4-yl)amino)methyl)phenyl)butanamide], the “Ratio (PKA/ROCK2)” value in assay [1] is on record as “*** (ratio≥10)”. Besides, the Ki in assay [2], in assay [3], in assay [4] and in assay [5] was not above 3 nM each time.
In the case of `CNC(=O)c1cccc(CNc2ncc(-c3ccncc3)c3c2CCO3)c1` [Example 20, N-methyl-3-(((7-(pyridin-4-yl)-2,3-dihydrofuro[3,2-c]pyridin-4-yl)amino)methyl)benzamide], in assay [1], the “Ratio (PKA/ROCK2)” value is “*** (ratio≥10)”. For the same compound, the Ki in assay [2], in assay [3], in assay [4] and in assay [5] was 3 to 30 nM throughout.

The values above are taken from patent US12534474B2, “Dihydrofuropyridine derivatives as rho-kinase inhibitors” (CHIESI FARMACEUTICI S.P.A., priority 2020, dated 2026).
